Source: US11919904B2, “Sulfonylamide compounds as CDK2 inhibitors” (Incyte Corporation, priority 2019, dated 2024)

Experiments:
[1] = tested on: Rb phosphorylated on serine 780 in CCNE1 amplified COV318 cells; assay: CDK2 pRb (S780) HTRF cellular assay; type: cell-based; conditions: Homo sapiens, FIG. 10B
Experimental: CDK2 pRb ([…]) HTRF cellular assay enables the quantitative detection of Rb phosphorylated on […] in CCNE1 amplified COV318 cells. The assay comprised two antibodies: Europium cryptate labeled anti-Phospho-Rb […] antibody (donor) and d2 labeled anti-Rb antibody (acceptor). […] The final concentrations of compounds start from 3 μM. […] After 2 h of incubation at room temperature, HTRF signals were measured on the PHERAstar microplate reader (BMG Labtech), using 340 nm as excitation wavelength, a 620 nm filter for the Europium donor fluorescence, and a 665-nm filter for the acceptor fluorescence detection. HTRF signals were calculated as the HTRF ratio (ratio of fluorescence measured at 665 nm and 620 nm)×10000.

[2] = tested on: CCNE1-non-amplified cell lines (COV504, OV56, Igrov1); assay: Cell cycle analysis by FACS in CCNE1-non-amplified cell lines; type: cell-based, human
Experimental: (§1) The effect of CDK4/6-inhibition in CCNE1-amplified versus CCNE1-non-amplified cell lines was evaluated.
(§2) A similar experiment was performed in a larger set of CCNE1-amplified cell lines (COV318 and OVCAR3) and CCNE1-non-amplified cell lines (COV504, OV56, and Igrov1) (FIG. 6).
(§3) Bulk DNA was stained with DAPI. Compound-treated and DMSO treated control cells were acquired with CytoFlex (Beckman Coulter) and were analyzed using the FlowJo software. For cell cycle analysis of cells with siRNA knockdown, 72 hours after siRNA transfection, cells exposed to 10 μM EdU for 3 hours before detection of Click-iT Alexa Fluor® 647 azide kit.

[3] = tested on: CCNE1-amplified cell lines (COV318, OVCAR3); assay: Cell cycle analysis by FACS in CCNE1-amplified cell lines; type: cell-based, human; conditions: COV318 and OVCAR3; 16 hours after treatment; compared to DMSO
Experimental: as §1, §2, §3

[4] = tested on: Rb phosphorylation at S780 in CCNE1-non-amplified cell lines (COV504 and OV56); assay: Western blot of Rb phosphorylation at S780 in CCNE1-non-amplified cell lines; type: cell-based, human; conditions: one or 15 hours after treatment, various doses
Experimental: The effect of CDK4/6-inhibition on Rb phosphorylation at S780 in CCNE1-amplified versus CCNE1-non-amplified cell lines was evaluated. […] One or 15 hours after treatment, the cells were harvested and total protein was extracted and analyzed by western blot (FIG. 8).
Whole cell extracts were prepared using RIPA buffer (Thermo Scientific, 89900) with a Halt Protease and Phosphatase Inhibitor Cocktail (Thermo Scientific, 78440). Protein concentration was quantified with a BCA Protein Assay Kit (Thermo Scientific, 23225) and 40 μg of protein lysates were loaded for SDS-PAGE using precast gradient gels (Bio-Rad, Hercules, No. 456-1094). Samples were diluted in 5×Laemmli buffer (300 mM Tris-HCl pH 6.8, 10% SDS (w/v), 5% 2-mercaptoethanol, 25% glycerol (v/v), 0.1% bromophenol blue w/v) and boiled for 5 minutes. […] of proteins were separated by 8-15% SDS-PAGE and transferred onto polyvinylidene fluoride (PVDF) membranes. Unspecific binding sites on the PVDF membranes were blocked with 5% non-fat milk in TBST (20 mM Tris-HCl, pH 7.6, 137 mM NaCl, 1% Tween-20). […] Images were captured by Luminescence/Fluorescence Imaging System Odyssey CLx Imager (LI-COR).

CC(=O)c1c(C)c2cnc(Nc3ccc(N4CCNCC4)cn3)nc2n(C2CCCC2)c1=O [palbociclib]
IC50 [1]: > 3 µM
percentage of cells at the S phase ([2]; COV504, OV56, Igrov1, 16 hours after treatment, compared to DMSO): decreased in CCNE1-non-amplified cell lines in a dose-dependent fashion
proliferation (cell cycle analysis by FACS) ([2]; COV504 cells, sixteen hours after treatment, increasing concentrations): dose-dependent inhibition of the proliferation
percentage of cells at the S phase [3]: not significantly different
Rb phosphorylation at S780 [4]: blocked Rb phosphorylation at S780
